{
  "source": "patent US9963518B2",
  "about": "“Cyclic oligosaccharides for use in the treatment and prevention of bacterial infection” (priority 2011, dated 2018)",
  "key": {"E. coli strain E69": {"test_system": "E. coli strain E69", "test": "Complement-mediated killing of bacteria in human serum", "format": "cell-based", "conditions": "for Complement-mediated killing of E69: 40% normal human serum, 1 h, 37° C.", "method": "This assay measured the killing of bacteria by the compounds of the invention mediated by the human complement system found in serum (incubation time 1 h, RPMI 1640, 37° C.). 10^3 cells of E. coli strain E69 or CWG281 were cultured in 40% (v/v) normal human serum (NHS, 1 mL, TCS Biosciences, CR100) or deactivated human serum (DHS) in RPMI 1640 medium (Sigma Aldrich, R8758) in 1.5 mL tubes in the presence of different concentrations of am8γCD (compound 13) at 37° C. for 1 h or 4 h. DHS was generated by heating NHS at 56° C. for 30 min. For the one-hour experiment, a portion of each culture (50 μL) was then spread onto a freshly prepared LB-Agar plate; for the four-hour experiment, the culture was firstly diluted 100 times (0, 1, 10, 40 μM), 10 times (100 μM) or not diluted (300 μM and 1 mM), and then a portion of each resulting culture (50 μL) was then spread onto a freshly prepared LB-Agar plate. The plates were incubated at 37° C. for 10 h after which colonies were counted. The total colonies of each sample were calculated by colonies/plate multiplying by times of dilution. P values were calculated from a one-tailed Student's t-test."}, "mutant Wza Y110G": {"target": "mutant Wza Y110G (Escherichia coli, UniProt Q9X4B7, Y110G)", "test": "Single-channel electrical recording, mutant Wza Y110G", "format": "binding, E. coli", "conditions": "n = 3, read-out: Dissociation constant (Kd) with mutant Wza pore", "method": "Thirteen commercial cyclodextrins (CDs) were tested for their ability to block WT-Wza and the mutant Y110G/K375C (Table 1) including, neutral, negatively charged or positively charged cyclodextrins. […]"}, "Wza Y110G/K375C": {"target": "Wza Y110G/K375C (Escherichia coli, UniProt Q9X4B7, K375C/Y110G)", "test": "Single-channel electrical recording, blockers against mutant Wza Y110G/K375C", "format": "binding, E. coli", "method": "The Wza pore was opened by replacing the tyrosines at position 110 that line the narrowest region of the lumen with glycine. To confirm that the currents observed indeed arose from the mutant pore, a cysteine was introduced in the α-helix barrel (Y110G/K375C) and would therefore yield a characteristic reversible blockade when derivatized with a suitable thiol-specific reagent.\nThe unitary conductance of the Y110G/K375C pore was determined as for wt-Wza, by measuring stepwise-insertion using the same technique referenced above. The mean open current of Y110G/K375C was determined to be +85±14.1 pA (+50 mV, n=31), corresponding to 1.70±0.28 nS (+50 mV, n=31) in conductance.\nThirteen commercial cyclodextrins (CDs) were tested for their ability to block WT-Wza and the mutant Y110G/K375C (Table 1) including, neutral, negatively charged or positively charged cyclodextrins. Testing was carried out using electrical channel recording in high salt buffer (2M KCl, 5 mM HEPES, 100 μM EDTA, 200 μM DTT) at pH 7.5."}, "[1]": {"test_system": "K30 polysaccharide transport through Wza", "test": "Inhibition of K30 polysaccharide transport through Wza, phenol extraction and carbohydrate staining", "format": "cell-based, E. coli strain E69", "method": "The inhibitory effect of am8γCD, am7βCD and am6αCD were tested on live bacteria (E. coli strain E69) with K30 capsular polysaccharide (CPS) and Wza as its transporter. Isolation and staining of the polysaccharides was used. Phenol extraction was carried out in accordance with Orskov (Eur. J. Biochem.; 1980, Stirm, J. Bacteriol. 1967) to isolate the capsular polysaccharide (CPS) and lipopolysaccharide (LPS), followed by carbohydrate staining Pro-Q Emerald 300 glycoprotein stain kit (Molecular Probes) was used for staining of both the CPS and LPS. The staining time, loading volume, oxidation time and washing time after staining were optimised and the following conditions used in the assay:\nLoading volume: 3 μL of the stock aqueous polysaccharide solution (see below), mixed with 3 μL of the Laemmli sample buffer (1 mL, Bio-Rad) mixed with 2-mercaptoethanol (950 microliter:50 microliter) before use;\nOxidation time: 30 minutes\nFurther details of the microbiology and the staining procedures used are as follows: The strains were grown in the absence of or the presence of various concentrations of am8γCD overnight in M9 minimal medium until OD reached ˜0.5. Cells were collected by centrifugation of the culture at 2583×g for 20 minutes at 4° C. In the phenol extraction, volume of phenol/buffer (20 mM Tris.-HCl, 2 mM MgCl2, 20 mM NaCl, pH 8.0) to each tube with a cell pellet is calculated as OD*667 μL. […] By doing this, the cell concentration in each sample was identical so that the changes in CPS and LPS quantity of each cell on average could be compared quantitatively.\nDetailed measurement of the inhibitory effect of am8γCD towards K30 polysaccharide translocation was then performed. […] The gel was stained to generate fluorescence signals that correspond to the sugar quantity. […]\nThe fluorescent intensities of the gels were measured by using the Bio-Rad Universal Hood II. […] The fluorescence intensity of each lane was processed with the Plot Lane function after illumination of the gel with UV light at 302 nm and fluorescent data collection emissions going through an Amber Filter (548-630 nm)."}},
  "note": "Where “and” joins values, the source holds several entries; their conditions need not be identical. Equal values may be shown once. Read-outs that look alike come from different tables or passages of the source.",
  "data": [
    {"smiles": "NC[C@H]1O[C@@H]2O[C@H]3[C@H](O)[C@@H](O)[C@@H](O[C@H]4[C@H](O)[C@@H](O)[C@@H](O[C@H]5[C@H](O)[C@@H](O)[C@@H](O[C@H]6[C@H](O)[C@@H](O)[C@@H](O[C@H]7[C@H](O)[C@@H](O)[C@@H](O[C@H]8[C@H](O)[C@@H](O)[C@@H](O[C@H]9[C@H](O)[C@@H](O)[C@@H](O[C@H]1[C@H](O)[C@H]2O)O[C@@H]9CN)O[C@@H]8CN)O[C@@H]7CN)O[C@@H]6CN)O[C@@H]5CN)O[C@@H]4CN)O[C@@H]3CN", "note": "[No. 12, Octacis (6-amino-6-deoxy)-γ-cyclodextrin]", "values": [
      {"measurement": "Complement-mediated killing of E69", "setting": "E. coli strain E69; 15 μM", "result": 21, "unit": "%"},
      {"measurement": "Complement-mediated killing of E69", "setting": "E. coli strain E69; 100 μM", "result": 51, "unit": "%"},
      {"measurement": "Complement-mediated killing of E69", "setting": "E. coli strain E69; 1 mM", "result": 84, "unit": "%"},
      {"measurement": "Growth of E69", "setting": "E. coli strain E69; 1 mM, normal human serum, incubation 4 h", "result": "completely inhibited the growth"},
      {"measurement": "EC50", "setting": "E. coli strain E69; Escherichia coli, E69, normal human serum, incubation 4 h, n=3, read-out: Concentration required to kill half of the bacteria (EC50)", "result": "3.2 ± 0.5", "unit": "µM"},
      {"measurement": "Effect on survival of E69 in the absence of NHS", "setting": "E. coli strain E69; compound alone at 100 μM or 1 mM, no normal human serum", "result": "no significant effect"},
      {"measurement": "Kd", "setting": "mutant Wza Y110G; 300 mM KCl, 5 mM HEPES, pH 7.5, +10 mV", "result": "0.0056 ± 0.0024", "unit": "µM"},
      {"measurement": "Kd", "setting": "mutant Wza Y110G; 2M KCl buffer pH 7.5, +3 mV", "result": "4.7 ± 4.6", "unit": "µM"},
      {"measurement": "Kd", "setting": "Wza Y110G/K375C; Kd, interaction with mutant Wza, Y110G/K375C, +3 mV, n = 3, 2M KCl buffer pH 7.5", "result": "12.3 µM and 12 µM"},
      {"measurement": "Interaction with mutant Wza", "setting": "Wza Y110G/K375C; Y110G/K375C, 2M KCl, 5 mM HEPES, 100 μM EDTA, 200 μM DTT, pH 7.5", "result": "not observed^c"},
      {"measurement": "Binding strength relative to am7βCD", "setting": "Wza Y110G/K375C; at different voltages", "result": "≥ 10", "unit": "times"},
      {"measurement": "Inhibition of K30 polysaccharide transport compared with am7βCD and am6αCD", "setting": "[1]; 1 mM, E. coli strain E69, staining assay", "result": "much stronger"},
      {"measurement": "LPS fluorescent intensity at saturation", "setting": "[1]; E. coli strain E69, increasing am8γCD", "result": "around 2 times that of the control"},
      {"measurement": "IC50", "setting": "[1]; Escherichia coli, read-out: IC50 from concentration dependence of the CPS band intensity", "result": "51.2 ± 1", "unit": "µM"}
    ]}
  ]
}
